Drawing on ChEMBL document CHEMBL5696442, “Discovery of type II inhibitors of TGFβ-activated kinase 1 (TAK1) and mitogen-activated protein kinase kinase kinase kinase 2 (MAP4K2)” (J Med Chem, 2015), this text covers inhibition and residual activity for 3 compounds.

In test [1] the target is Serine/threonine-protein kinase 24 (Homo sapiens) (UniProt Q9Y6E0). The test is described as follows: Inhibition of MST3 ACT labeling site in human A-375 cells at 0.05 uM by KiNativ Profiling analysis relative to control. The test is classed as cell-based.
Test [2] concerns the target Tyrosine-protein kinase TXK (Homo sapiens) (UniProt P42681). Briefly: Inhibition of TXK (unknown origin) at 1 uM by Ambit Kinomescan binding assay relative to control.
The target in test [3] is T1, Kinase suppressor of Ras 1 (Homo sapiens) (UniProt Q8IVT5).
T1 sequence (whole entry): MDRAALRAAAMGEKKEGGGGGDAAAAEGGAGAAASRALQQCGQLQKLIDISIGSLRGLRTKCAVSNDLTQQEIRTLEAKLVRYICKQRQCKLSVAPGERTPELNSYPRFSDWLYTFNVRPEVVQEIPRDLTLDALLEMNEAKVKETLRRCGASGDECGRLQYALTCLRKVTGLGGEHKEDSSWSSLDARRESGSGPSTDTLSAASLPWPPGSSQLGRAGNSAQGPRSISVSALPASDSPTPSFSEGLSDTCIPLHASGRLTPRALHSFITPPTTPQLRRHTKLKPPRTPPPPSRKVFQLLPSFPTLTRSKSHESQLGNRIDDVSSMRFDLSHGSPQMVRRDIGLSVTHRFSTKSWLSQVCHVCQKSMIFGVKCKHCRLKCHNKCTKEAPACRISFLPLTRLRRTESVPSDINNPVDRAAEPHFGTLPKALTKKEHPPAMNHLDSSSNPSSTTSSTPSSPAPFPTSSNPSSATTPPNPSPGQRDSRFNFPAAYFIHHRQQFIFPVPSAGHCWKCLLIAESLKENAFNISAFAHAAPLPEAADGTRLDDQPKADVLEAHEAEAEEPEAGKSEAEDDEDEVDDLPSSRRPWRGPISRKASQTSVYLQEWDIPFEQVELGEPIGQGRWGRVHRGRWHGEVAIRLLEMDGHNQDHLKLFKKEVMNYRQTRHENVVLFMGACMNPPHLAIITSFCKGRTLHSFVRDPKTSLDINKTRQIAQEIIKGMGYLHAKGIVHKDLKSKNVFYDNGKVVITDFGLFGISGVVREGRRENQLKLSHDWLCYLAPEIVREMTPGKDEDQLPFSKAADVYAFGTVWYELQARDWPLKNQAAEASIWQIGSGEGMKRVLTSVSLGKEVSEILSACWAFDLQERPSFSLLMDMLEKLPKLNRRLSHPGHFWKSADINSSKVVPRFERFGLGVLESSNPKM
Briefly: Inhibition of KSR1 ACT labeling site harbouring SKNVFYDNGKVVITDFGLFGISGVVR in human A-375 cells at 5 uM by KiNativ Profiling analysis relative to control. Type of test: cell-based.

For test [4], the target named is Ephrin type-A receptor 6 (Homo sapiens) (UniProt Q9UF33). The test is described as follows: Inhibition of EPHA6 (unknown origin) at 1 uM by Ambit Kinomescan binding assay relative to control; values are per cent of control.
The target in test [5] is Ribosomal protein S6 kinase delta-1 (Homo sapiens) (UniProt Q96S38). Briefly: Inhibition of RPS6KC1 domain 1 ATP labeling site in human Huh-7 cells at 10 uM by KiNativ Profiling analysis relative to control. The test is classed as cell-based.
Test [6] has as its target T2, Serine/threonine-protein kinase greatwall (Homo sapiens) (UniProt Q96GX5).
T2 sequence (whole entry): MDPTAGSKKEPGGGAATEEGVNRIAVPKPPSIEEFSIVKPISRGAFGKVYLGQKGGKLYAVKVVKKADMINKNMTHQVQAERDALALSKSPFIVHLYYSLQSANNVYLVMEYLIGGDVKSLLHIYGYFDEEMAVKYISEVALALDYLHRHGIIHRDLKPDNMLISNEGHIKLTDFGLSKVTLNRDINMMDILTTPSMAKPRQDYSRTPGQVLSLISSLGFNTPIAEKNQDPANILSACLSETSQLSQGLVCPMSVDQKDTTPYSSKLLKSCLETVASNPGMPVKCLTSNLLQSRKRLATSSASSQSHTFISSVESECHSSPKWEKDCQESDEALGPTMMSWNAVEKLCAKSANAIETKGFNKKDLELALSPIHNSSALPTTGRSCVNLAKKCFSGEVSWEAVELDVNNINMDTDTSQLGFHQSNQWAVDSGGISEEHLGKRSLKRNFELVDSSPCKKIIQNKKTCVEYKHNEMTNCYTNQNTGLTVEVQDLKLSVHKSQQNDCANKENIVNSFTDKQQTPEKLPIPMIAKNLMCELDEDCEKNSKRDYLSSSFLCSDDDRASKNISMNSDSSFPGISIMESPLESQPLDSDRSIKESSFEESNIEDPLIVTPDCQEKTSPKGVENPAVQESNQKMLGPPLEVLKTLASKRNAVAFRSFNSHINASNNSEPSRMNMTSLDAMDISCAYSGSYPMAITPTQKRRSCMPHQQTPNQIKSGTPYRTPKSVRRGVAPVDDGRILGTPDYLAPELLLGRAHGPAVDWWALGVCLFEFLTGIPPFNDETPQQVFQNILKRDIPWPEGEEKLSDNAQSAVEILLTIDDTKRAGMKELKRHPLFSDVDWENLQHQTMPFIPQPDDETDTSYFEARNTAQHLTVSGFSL
Briefly: Inhibition of MASTL K2 labeling site in human Huh-7 cells at 1 uM by KiNativ Profiling analysis relative to control. Type of test: cell-based.

For test [7], the target named is 3-phosphoinositide-dependent protein kinase 1 (Homo sapiens) (UniProt O15530). The test is described as follows: Inhibition of PDPK1 (unknown origin) at 10 uM by Ambit Kinomescan binding assay.
Test [8] addresses Serine/threonine-protein kinase B-raf (Homo sapiens, UniProt P15056). The test is described as follows: Inhibition of BRAF K2 labeling site in human Huh-7 cells at 10 uM by KiNativ Profiling analysis relative to control. Type of test: cell-based.
The target in test [9] is STE20/SPS1-related proline-alanine-rich protein kinase (Homo sapiens) (UniProt Q9UEW8). The test is described as follows: Inhibition of STLK3 Lys2 labeling site in human Huh-7 cells at 1 uM by KiNativ Profiling analysis relative to control. Type of test: cell-based.

SMILES strings stand for the structures. Calls of active or inactive are those of the source. No cut-off for these calls is given here.

Chain of Ribosomal protein S6 kinase delta-1 (Homo sapiens) (Q96S38 whole entry, the tested form may be a part): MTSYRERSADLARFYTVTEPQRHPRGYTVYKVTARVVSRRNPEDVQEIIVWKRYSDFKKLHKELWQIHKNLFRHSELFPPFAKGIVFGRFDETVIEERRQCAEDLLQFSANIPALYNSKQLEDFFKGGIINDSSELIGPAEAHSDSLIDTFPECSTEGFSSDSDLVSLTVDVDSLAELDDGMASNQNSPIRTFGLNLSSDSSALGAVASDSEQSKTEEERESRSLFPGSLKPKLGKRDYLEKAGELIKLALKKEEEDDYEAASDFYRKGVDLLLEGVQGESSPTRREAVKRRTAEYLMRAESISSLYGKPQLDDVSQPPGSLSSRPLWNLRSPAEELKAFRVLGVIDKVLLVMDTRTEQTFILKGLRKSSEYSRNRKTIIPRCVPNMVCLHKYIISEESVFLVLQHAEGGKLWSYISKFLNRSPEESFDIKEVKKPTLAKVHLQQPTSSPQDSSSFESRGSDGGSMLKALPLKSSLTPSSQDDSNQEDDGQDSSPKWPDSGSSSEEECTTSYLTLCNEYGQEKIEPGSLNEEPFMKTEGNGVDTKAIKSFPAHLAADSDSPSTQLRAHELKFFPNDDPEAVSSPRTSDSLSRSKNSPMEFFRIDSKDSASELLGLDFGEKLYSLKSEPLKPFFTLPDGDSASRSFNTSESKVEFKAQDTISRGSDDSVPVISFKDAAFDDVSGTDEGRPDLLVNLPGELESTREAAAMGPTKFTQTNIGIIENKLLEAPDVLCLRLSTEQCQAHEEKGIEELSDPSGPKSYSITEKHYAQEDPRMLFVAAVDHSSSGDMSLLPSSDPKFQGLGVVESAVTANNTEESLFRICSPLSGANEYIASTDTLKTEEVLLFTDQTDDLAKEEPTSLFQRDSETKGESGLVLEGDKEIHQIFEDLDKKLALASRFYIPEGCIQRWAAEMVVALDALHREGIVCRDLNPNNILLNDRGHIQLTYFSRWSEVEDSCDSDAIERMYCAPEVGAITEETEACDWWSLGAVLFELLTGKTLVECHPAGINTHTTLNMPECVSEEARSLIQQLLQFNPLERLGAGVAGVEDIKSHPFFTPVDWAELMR
Chain of 3-phosphoinositide-dependent protein kinase 1 (Homo sapiens) (O15530 whole entry): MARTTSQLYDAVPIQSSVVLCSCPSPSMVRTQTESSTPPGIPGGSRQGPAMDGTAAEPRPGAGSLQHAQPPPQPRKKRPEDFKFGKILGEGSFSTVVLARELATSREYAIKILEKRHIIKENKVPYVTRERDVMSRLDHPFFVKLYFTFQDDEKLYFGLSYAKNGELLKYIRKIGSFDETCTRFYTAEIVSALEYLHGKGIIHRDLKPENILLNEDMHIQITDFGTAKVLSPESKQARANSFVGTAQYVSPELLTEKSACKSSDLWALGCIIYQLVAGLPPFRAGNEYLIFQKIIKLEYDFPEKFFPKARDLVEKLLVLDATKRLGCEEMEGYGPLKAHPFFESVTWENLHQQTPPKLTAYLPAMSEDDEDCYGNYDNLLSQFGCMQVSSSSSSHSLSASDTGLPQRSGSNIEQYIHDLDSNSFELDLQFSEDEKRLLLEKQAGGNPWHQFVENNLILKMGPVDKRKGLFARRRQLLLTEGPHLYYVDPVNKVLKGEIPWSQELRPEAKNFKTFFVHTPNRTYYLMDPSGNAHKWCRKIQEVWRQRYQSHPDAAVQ
Chain of Serine/threonine-protein kinase B-raf (P15056 whole entry): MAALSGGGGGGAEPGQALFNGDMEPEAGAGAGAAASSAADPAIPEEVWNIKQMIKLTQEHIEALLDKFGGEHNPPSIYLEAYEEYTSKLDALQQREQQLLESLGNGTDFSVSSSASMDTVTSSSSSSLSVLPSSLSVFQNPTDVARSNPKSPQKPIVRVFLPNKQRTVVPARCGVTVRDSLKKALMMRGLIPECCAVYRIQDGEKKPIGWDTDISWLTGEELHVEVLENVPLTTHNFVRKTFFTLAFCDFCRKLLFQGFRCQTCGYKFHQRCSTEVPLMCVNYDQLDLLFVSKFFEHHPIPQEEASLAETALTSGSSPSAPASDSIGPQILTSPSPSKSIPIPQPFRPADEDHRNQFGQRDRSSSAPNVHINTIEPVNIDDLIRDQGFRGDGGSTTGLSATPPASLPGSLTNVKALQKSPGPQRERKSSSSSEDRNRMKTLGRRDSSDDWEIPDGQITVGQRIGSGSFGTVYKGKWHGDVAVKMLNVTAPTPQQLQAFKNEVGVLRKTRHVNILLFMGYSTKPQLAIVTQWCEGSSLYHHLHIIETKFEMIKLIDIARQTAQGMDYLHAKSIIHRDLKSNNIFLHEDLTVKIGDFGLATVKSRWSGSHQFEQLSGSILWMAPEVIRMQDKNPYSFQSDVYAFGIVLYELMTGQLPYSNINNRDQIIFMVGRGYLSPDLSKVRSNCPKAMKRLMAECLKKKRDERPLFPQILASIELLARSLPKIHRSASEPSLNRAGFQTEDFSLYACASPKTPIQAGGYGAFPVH
Chain of Ephrin type-A receptor 6 (Homo sapiens) (Q9UF33 whole entry, the tested form may be a part): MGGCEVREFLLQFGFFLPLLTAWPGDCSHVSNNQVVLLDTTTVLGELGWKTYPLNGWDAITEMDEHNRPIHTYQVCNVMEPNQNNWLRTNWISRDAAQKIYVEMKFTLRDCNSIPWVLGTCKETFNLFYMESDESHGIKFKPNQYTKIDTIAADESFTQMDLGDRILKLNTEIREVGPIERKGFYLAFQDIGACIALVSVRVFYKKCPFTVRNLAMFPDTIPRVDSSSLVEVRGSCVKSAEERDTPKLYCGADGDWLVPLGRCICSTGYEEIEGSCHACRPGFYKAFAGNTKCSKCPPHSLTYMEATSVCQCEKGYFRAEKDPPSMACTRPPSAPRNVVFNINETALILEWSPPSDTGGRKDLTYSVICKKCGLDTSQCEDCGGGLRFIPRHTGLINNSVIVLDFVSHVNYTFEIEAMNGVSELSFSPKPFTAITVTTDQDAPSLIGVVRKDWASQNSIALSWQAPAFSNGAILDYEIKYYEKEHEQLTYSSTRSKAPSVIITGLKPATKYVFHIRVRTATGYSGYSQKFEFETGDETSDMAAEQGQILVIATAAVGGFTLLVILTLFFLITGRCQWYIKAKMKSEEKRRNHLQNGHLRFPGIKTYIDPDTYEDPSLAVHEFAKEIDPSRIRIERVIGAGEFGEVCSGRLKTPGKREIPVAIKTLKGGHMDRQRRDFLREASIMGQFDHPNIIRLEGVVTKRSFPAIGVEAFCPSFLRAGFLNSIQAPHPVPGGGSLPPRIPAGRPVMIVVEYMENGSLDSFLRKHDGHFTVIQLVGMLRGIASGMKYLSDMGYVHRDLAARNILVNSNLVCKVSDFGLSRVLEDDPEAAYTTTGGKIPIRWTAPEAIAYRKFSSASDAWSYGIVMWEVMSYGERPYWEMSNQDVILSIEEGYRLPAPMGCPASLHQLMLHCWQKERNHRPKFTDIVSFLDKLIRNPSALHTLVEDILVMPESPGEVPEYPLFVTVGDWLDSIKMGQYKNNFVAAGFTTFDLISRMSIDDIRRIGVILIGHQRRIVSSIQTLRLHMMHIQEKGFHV
Chain of Serine/threonine-protein kinase 24 (Homo sapiens) (Q9Y6E0 whole entry, looked up): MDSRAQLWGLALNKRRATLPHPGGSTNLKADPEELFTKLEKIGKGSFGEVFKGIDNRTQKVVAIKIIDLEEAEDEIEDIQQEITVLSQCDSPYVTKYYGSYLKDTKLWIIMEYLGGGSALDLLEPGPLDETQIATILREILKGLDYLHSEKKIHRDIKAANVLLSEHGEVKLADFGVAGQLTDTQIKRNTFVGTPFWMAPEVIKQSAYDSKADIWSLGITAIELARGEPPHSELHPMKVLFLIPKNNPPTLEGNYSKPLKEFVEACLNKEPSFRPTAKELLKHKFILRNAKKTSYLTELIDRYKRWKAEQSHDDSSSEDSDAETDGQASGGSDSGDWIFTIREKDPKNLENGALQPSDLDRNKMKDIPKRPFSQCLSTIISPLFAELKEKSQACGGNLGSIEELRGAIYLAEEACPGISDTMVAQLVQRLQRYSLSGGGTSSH
Chain of Tyrosine-protein kinase TXK (Homo sapiens) (P42681 whole entry): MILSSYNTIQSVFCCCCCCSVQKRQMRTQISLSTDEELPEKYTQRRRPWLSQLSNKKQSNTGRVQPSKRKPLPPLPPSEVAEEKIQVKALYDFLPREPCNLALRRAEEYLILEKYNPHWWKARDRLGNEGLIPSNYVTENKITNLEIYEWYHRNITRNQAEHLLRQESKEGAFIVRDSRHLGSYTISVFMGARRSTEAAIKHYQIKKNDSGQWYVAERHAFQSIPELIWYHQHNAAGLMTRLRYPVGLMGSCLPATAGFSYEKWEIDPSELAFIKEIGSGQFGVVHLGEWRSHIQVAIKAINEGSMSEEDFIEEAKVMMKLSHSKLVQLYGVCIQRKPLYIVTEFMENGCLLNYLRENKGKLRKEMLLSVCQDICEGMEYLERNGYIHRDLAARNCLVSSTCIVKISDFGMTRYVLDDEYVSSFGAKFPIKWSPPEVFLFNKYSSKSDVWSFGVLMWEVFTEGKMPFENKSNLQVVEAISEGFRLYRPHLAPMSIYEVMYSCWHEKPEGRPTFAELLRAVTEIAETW

Usually inhibition stands for the change of the read-out against control, counted positive when it falls. Usually residual activity stands for what remains of the control signal, in per cent. Higher therefore signals much activity left. `CCN1CCN(Cc2ccc(NC(=O)c3ccc(C)c(/C=C/c4cnc5[nH]ccc5c4OC)c3)cc2C(F)(F)F)CC1`: the inhibition in [1] came to 13.5%; in test [2] it was 1.4%; in test [3], 1.7%. This compound gave a residual activity in test [4] of 29%.
In the case of `CCN1CCN(Cc2ccc(NC(=O)c3ccc(C)c(Oc4ccnc5[nH]ccc45)c3)cc2C(F)(F)F)CC1`, the inhibition was 15.4% in test [5], -2.1% in test [6] and 5.2% in [8]. In addition, the inhibition entry in test [7] is “inactive”.
For `CNc1cc(Oc2cc(C(=O)Nc3cc(N4CCN(C)CC4)cc(C(F)(F)F)c3)ccc2C)ncn1`, the inhibition in test [9] is 57.3%.
